{"source": "patent US9180111B2", "about": "“Reduction in complement activation and inflammation during tissue injury by carotenoids, carotenoid analogs, or derivatives thereof” (Cardax Pharma, Inc., priority 2005, dated 2015)", "key": {"[1]": {"tested_on": "MAC (C5b-9)", "experiment": "MAC deposition in heart tissue by indirect immunofluorescence", "assay_type": "in vivo, rabbit", "conditions": "rabbits, 50 mg/kg i.v. 4 days, 30 min ischemia, 3 h reperfusion; p<0.05", "protocol": "(§1) The immunofluorescent method for detection of CRP was performed essentially as described previously (Lauver et al., 2005). Briefly, tissue samples used for infarct size determination were fixed in 10% buffered formalin immediately after the completion of the experimental protocol. The tissue samples were embedded in paraffin blocks and cut into sections of 2 μm in thickness, which were then mounted on glass slides. Two consecutive sections (mirror images) from a single heart slice were mounted on each slide. The slides were deparaffinized and subjected to antigen unmasking using a commercially available kit for this purpose (Vector Laboratories, Burlingame, Calif.). After blocking for 30 minutes, primary antibodies were incubated at room temperature in a humidity chamber for 45 minutes. One section per slide was incubated with a chicken anti-rabbit CRP antibody (5 μg/ml final concentration, Strategic BioSolutions, Newark, Del.) and the other section was incubated with a chicken anti-rabbit MAC antibody (1:2500 final dilution, developed in conjunction with Lampire Biological Laboratories, Pipersville, Pa.). […] Images were analyzed using IP Lab (Scanalytics, Inc., Fairfax, Va.) software to determine mean fluorescence intensity per heart section. […]"}, "[2]": {"experiment": "Plasma and tissue concentrations of non-esterified, free astaxanthin at the end of reperfusion", "assay_type": "in vivo, rabbit", "conditions": "rabbits, DDA 50 mg/kg i.v. for 4 days, end of 3 h reperfusion", "from_the_text": "To determine the plasma and tissue concentrations of non-esterified, free astaxanthin in blood and organs, samples were taken at the end of reperfusion in selected rabbits (n=5) treated with DDA, and determined by methods previously described (Osterlie et al., 2000). Non-esterified, free astaxanthin, in vivo, is generated after cleavage of the water-dispersible disuccinate diester to monosuccinate, and subsequently to non-esterified, free astaxanthin by the intrinsic esterase activity of serum albumin (Curry et al., 1999), or by non-specific esterase activity in plasma and solid organs (Jensen et al., 1999). Non-esterified, free astaxanthin then accumulates in myocardium and other tissues after plasma clearance in a dose-dependent manner after both oral (Showalter et al., 2004) and intravenous administration (Gross and Lockwood 2004a,b)."}, "[3]": {"experiment": "Determination of aqueous solubility/dispersibility", "assay_type": "physicochemical", "conditions": "deionized water", "protocol": "(§2) 30.13 mg of 3 was added to 1 mL of USP-purified water. The sample was rotated for 2 hours, then centrifuged for 5 minutes. After centrifuging, solid was visible in the bottom of the tube. A 125-μL aliquot of the solution was then diluted to 25 mL. The sample was analyzed by UV/Vis spectroscopy at 436 nm, and the absorbance was compared to a standard curve compiled from 4 standards of known concentration. The concentration of the original supernatant was calculated to be 2.85 mg/mL and the absorptivity was 36.94 AU*mL/cm*mg. Slight error may have been introduced by the small size of the original aliquot.\nas §2, with “Next, 30.80” for “30.13”, “9” for “3”, “411” for “436”, “29.27” for “2.85”, “2.90” for “36.94”"}, "[4]": {"tested_on": "CRP", "experiment": "CRP deposition in heart tissue by indirect immunofluorescence", "assay_type": "in vivo, rabbit", "conditions": "rabbits, 50 mg/kg i.v. 4 days, 30 min ischemia, 3 h reperfusion; p<0.05", "protocol": "as §1"}, "[5]": {"tested_on": "rabbit complement system", "experiment": "Complement-mediated red blood cell (RBC) hemolysis assay, ex vivo, rabbit plasma on human erythrocytes", "assay_type": "in vivo", "conditions": "plasma after 3 h reperfusion, 50 mg/kg, 4 days; p<0.01", "protocol": "A red blood cell (RBC) lysis assay was used to determine whether the pretreatment with DDA compared to placebo-treated animals was able to inhibit the rabbit complement system. The ex vivo analysis of complement activity is based on the C5b-9-dependent lysis of human red blood cells upon exposure to rabbit plasma. Complement-mediated RBC hemolysis was assessed by a turbidometric method described previously (Pascual et al., 1990). The hemolysis assay is an accepted method of assessing the complement titer of plasma or serum samples (Whaley, 1985). Rabbit plasma was obtained from whole blood samples drawn from rabbits that were pretreated with DDA (50 mg/kg, 4 days, n=5) or sterile 0.9% sodium chloride solution (4 days, n=5). After obtaining informed consent, human whole blood for the isolation of red blood cells was obtained by venipuncture of the forearm vein of a healthy donor who had not been exposed to any medication for the past seven days. The cells were washed three times in 10 ml phosphate buffered saline (PBS, pH 7.4) and diluted in PBS to achieve a final RBC concentration of 1×10^8 cells/ml. The assay was initiated by the addition of 15 μl of diluted human RBCs to 185 μl of rabbit plasma, and the light transmittance was monitored for 5 min. The final assay volume was 200 μl. […]"}, "[6]": {"tested_on": "Sprague-Dawley rats", "conditions": "50 mg/kg i.v., four days; cited from earlier work"}, "[7]": {"tested_on": "mongrel canines", "conditions": "50 mg/kg i.v., four days; cited from earlier work"}, "[8]": {"conditions": "oral administration to black mice (Showalter et al. 2004); cited from earlier work"}}}
{"smiles": "CC1=C(/C=C/C(C)=C/C=C/C(C)=C/C=C/C=C(C)/C=C/C=C(C)/C=C/C2=C(C)C(=O)C(OC(=O)CCC(=O)O)CC2(C)C)C(C)(C)CC(OC(=O)CCC(=O)O)C1=O", "note": "(stereo not drawn) [DDA, disodium disuccinate astaxanthin]", "values": [{"measurement": "MAC deposition in infarct region (fluorescence intensity) versus saline", "setting": "[1]", "result": "significantly reduced fluorescence"}, {"measurement": "mean myocardial tissue concentration of non-esterified astaxanthin", "setting": "[2]", "result": "> 10", "unit": "µM"}, {"measurement": "mean plasma concentration of non-esterified, free astaxanthin", "setting": "[2]", "result": "222 ± 51", "unit": "nM"}, {"measurement": "maximum aqueous dispersibility", "setting": "[3]", "result": "greater than 10 mM"}, {"measurement": "CRP deposition in infarct region (fluorescence intensity) versus saline", "setting": "[4]", "result": "significantly reduced fluorescence"}, {"measurement": "rabbit plasma-induced human erythrocyte hemolysis versus placebo", "setting": "[5]", "result": "significantly attenuated"}, {"measurement": "mean myocardial salvage", "setting": "[6]", "result": 41, "unit": "%"}, {"measurement": "mean myocardial salvage", "setting": "[7]", "result": 68, "unit": "%"}, {"measurement": "plasma clearance of free astaxanthin and tissue/serum ratios", "setting": "[8]", "result": "Rapid plasma clearance of free astaxanthin, and excellent myocardium- and hepatic/serum ratios"}]}
